System: Jurkat cells engineered to have enhanced green fluorescent protein (eGFP) reporter fused to nuclear factor of activated T cells (NFAT) transcription factor
Assay: NFAT-eGFP reporter assay in Jurkat cells with compounds photoreleased from labeled perturbation beads
Assay type: cell-based
Conditions: compounds released from beads by 10 seconds of 365 nm light, 60 mW/cm^2
Method: Individual beads were added to wells of a multiwell assay device. Jurkat cells engineered to have enhanced green fluorescent protein (eGFP) reporter fused to nuclear factor of activated T cells (NFAT) transcription factor were added to each well (cells purchased from BPS Bioscience, Catalog #78384). The compounds were released from the beads by exposure to 10 seconds of 365 nm wavelength light having illumination power of 60 mW/cm^2 and allowed to interact with the cells in the respective wells. […] This exemplifies using optically detectible labels on the bead to code for perturbation compounds and/or building blocks and corresponding that visible code to a cell perturbation.

Row | SMILES | change in NFAT-eGFP expression levels
1 | COc1cc2c(cc1Nc1ncc(C(=O)O)c(Nc3c(F)cccc3C(F)(F)F)n1)CN(C)CC2 [HPK, 4-{[2-Fluoro-6-(trifluoromethyl)phenyl]amino}-2-[(6-methoxy-2-methyl-1,2,3,4-tetrahydro-7-isoquinolinyl)amino]-5-pyrimidine-5-carboxylic acid] | minimal change
2 | Cc1sc2c(c1C)C(c1ccc(Cl)cc1)=NC([C@@H](C(=O)O)C(C)(C)C)c1nnc(C)n1-2 (stereo partly drawn) [JQ1, ((S)-tert-butyl 2-(4-(4-chlorophenyl)-2,3,9-trimethyl-6H-thieno[3,2-f] [1,2,4]triazolo[4,3-a] [1,4]diazepin-6-yl)acetic acid)] | minimal change
3 | O=C1CCC(N2Cc3cc(C(=O)O)ccc3C2=O)C(=O)N1 (stereo not drawn) [LNI, 2-(2,6-dioxopiperidin-3-yl)-1-oxoisoindoline-5-carboxylic acid] | minimal change

Reference: US12577556B2, “Perturbation beads for use in assays” (Zafrens Inc., priority 2022, dated 2026)
